Measured values published in US20250205168A1, “METHOD FOR PRODUCING NUCLEIC ACID-ENCAPSULATED LIPID NANOPARTICLES, METHOD FOR PRODUCING PHARMACEUTICAL COMPOSITION CONTAINING SAID LIPID NANOPARTICLES, AND METHOD FOR INTRODUCING NUCLEIC ACID INTO CELL OR TARGET CELL” (NOF Corporation, priority 2022, published 2025).
“Also recorded” adds a separate entry of the source.

Assays:
[1] = mRNA encapsulation rate (Ribogreen assay); format: physicochemical; conditions: 37° C. 5 min
Protocol: The particle size, polydispersity index (PdI), and mRNA encapsulation rate of the obtained nucleic acid-encapsulated nanoparticles were analyzed. The particle size and PdI were measured by the dynamic light scattering method using a Zetasizer (registered trademark). The mRNA encapsulation rate was measured by the Ribogreen (registered trademark) assay. […]
The particle size, polydispersity index (PdI), and mRNA encapsulation rate of the obtained nucleic acid-encapsulated nanoparticles were analyzed. The particle size and PdI were measured by the dynamic light scattering method using a Zetasizer (registered trademark). The mRNA encapsulation rate was measured by the Ribogreen (registered trademark) assay. As a result, mRNA was encapsulated at any incubation temperature, and no difference in the encapsulation rate was observed. The particle size of the obtained nucleic acid-encapsulated nanoparticles tended to increase with increasing incubation temperature (see FIG. 24 and FIG. 25).
The particle size, polydispersity index (PdI), and mRNA encapsulation rate of the obtained nucleic acid-encapsulated nanoparticles were analyzed. The particle size and PdI were measured by the dynamic light scattering method using a Zetasizer (registered trademark). The mRNA encapsulation rate was measured by the Ribogreen (registered trademark) assay. As a result, the encapsulation rate of mRNA tended to decrease with increasing salt concentration of the buffer (see FIG. 34 and FIG. 35).
The particle size, polydispersity index (PdI), and mRNA encapsulation rate of the obtained nucleic acid-encapsulated nanoparticles were analyzed. The particle size and PdI were measured by the dynamic light scattering method using a Zetasizer (registered trademark). The mRNA encapsulation rate was measured by the Ribogreen (registered trademark) assay. As a result, mRNA was encapsulated (see Table 5).
The particle size, polydispersity index (PdI), and mRNA encapsulation rate of the obtained nucleic acid-encapsulated nanoparticles or nucleic acid-encapsulated nanoparticles prepared by freeze-dry technique in Comparative Example 1 were analyzed. The particle size and PdI were measured by the dynamic light scattering method using a Zetasizer (registered trademark). The mRNA encapsulation rate was measured by the Ribogreen (registered trademark) assay. […] In addition, the particle size of the nucleic acid-encapsulated nanoparticles was smaller than that of nucleic acid-encapsulated nanoparticles produced by the freeze-dry technique (see FIG. 14 and FIG. 15).
The particle size, polydispersity index (PdI), and mRNA encapsulation rate of the obtained nucleic acid-encapsulated nanoparticles or nucleic acid-encapsulated nanoparticles prepared by freeze-dry technique in Comparative Example 2, Comparative Example 3 were analyzed. The particle size and PdI were measured by the dynamic light scattering method using a Zetasizer (registered trademark). The mRNA encapsulation rate was measured by the Ribogreen (registered trademark) assay. […] In addition, the particle size of the nucleic acid-encapsulated nanoparticles was smaller than that of nucleic acid-encapsulated nanoparticles produced by the freeze-dry technique (see FIG. 36 and FIG. 37). In FIG. 36, FIG. 37 and FIG. 38, Comparative Example 2 in which the total flow rate during preparation of lipid nanoparticles was 1 mL/min, is shown as “freeze-dry (FR=1)”, and Comparative Example 3, in which the total flow rate was 16 mL/min, is shown as “freeze-dry (FR=16)”.
The particle size, polydispersity index (PdI), and mRNA encapsulation rate of the obtained nucleic acid-encapsulated nanoparticles (liquid) or nucleic acid-encapsulated nanoparticles produced using a microfluidic channel (MF) (LNP prepared with the same lipid composition and using MES buffer (20 mM, pH 6.5) containing nucleic acid and an ethanol solution of lipid) were analyzed. […]

[2] = test system: HeLa cells; assay: nucleic acid introduction into HeLa cells, luciferase luminescence (Steady-Glo, GloMax 20/20 luminometer); format: cell-based; conditions: Example 10, particles produced using SS-OP, after 13 hr
Protocol: The nucleic acid-encapsulated nanoparticles obtained were applied to HeLa cells to evaluate the nucleic acid introduction efficiency. HeLa cells were seeded in D-MEM medium (high glucose) (containing L-glutamine and phenol red) (containing 10% FBS and 1% penicillin-streptomycin solution added) at 5×10^3 cells/100 μL in a 96-well flat-bottom transparent plate. The obtained nucleic acid-encapsulated particles were added such that the nucleic acid concentration in the medium was 0.02 μg/4 μL. After 16 hr, the amount of luciferase protein introduced was evaluated using the amount of luminescence. 100 μL of Steady-Glo (registered trademark) was added, and the cells were lysed by shaking for 5 min, and the amount of luminescence was quantified using a GloMax 20/20 luminometer. As a result, the introduction of luciferase protein was confirmed at any incubation temperatures, and no difference in in vitro activity was observed.
The nucleic acid-encapsulated nanoparticles obtained were applied to HeLa cells and the nucleic acid introduction efficiency was evaluated. […] After 13 hr, the amount of luciferase protein introduced was evaluated using the amount of luminescence. 100. μL of Steady-Glo (registered trademark) was added, and the cells were lysed by shaking for 5 min, and the amount of luminescence was quantified using a GloMax 20/20 luminometer. […]

[3] = Zeta potential by electrophoretic light scattering (Zetasizer); format: physicochemical; conditions: Example 10; particles produced using SS-OP at pH and pH 5.5 compared to pH 6, pH 6.5 and pH 7; measured in MES pH 5-7
Protocol: Among the obtained nucleic acid-encapsulated nanoparticles, the particles produced using SS-OP were analyzed for Zeta potential. Zeta potential was measured by the electrophoretic light scattering method using Zetasizer (registered trademark) and using MES buffer (pH 5, pH 5.5, pH 6, pH 6.5 or pH 7).

[4] = Example 4, LNP in MES pH 5, 5.5, 6, 6.5 or 7, mRNA 1.5 μg/135 μL
[5] = Example 10, LNP and mRNA (3 μg/135 μL) in MES pH 5, 5.5, 6, 6.5 or 7

Compound | encapsulation rate at higher pH, in words [1, 4] | encapsulation rate at higher pH, in words [1, 5] | in vitro activity (luciferase luminescence) by pH of production, in words [2] | Zeta potential, in words [3]
CCCCCCCC/C=C\CCCCCCCC(=O)OCC(CN(C)C)OC(=O)CCCCCCC/C=C\CCCCCCCC (stereo not shown) [DODAP, 1,2-dioleoyloxy-3-dimethylaminopropane, reference compound] | decreased at pH 6, pH 6.5, and pH 7 | decreased at pH 6.5 and pH 7 |  | 
CCCCCC=CCC=CCCCCCCCCC(CCCCCCCCC=CCC=CCCCCC)OC(=O)CCCN(C)C (stereo not shown) [MC3, heptatriaconta-6,9,28,31-tetraen-19-yl-4-(dimethylamino)butanoate, reference compound] | decreased at pH 6.5 and pH 7 | decreased at pH 6.5 and pH 7 |  | 
CCCCCCCC/C=C\CCCCCCCC(=O)OCCC1CCN(CCSCSCCN2CCC(CCOC(=O)CCCCCCC/C=C\CCCCCCCC)CC2)CC1 [SS-OC] | decreased at pH 6, pH 6.5, and pH 7 | decreased at pH 6.5 and pH 7 |  | 
CCCCCCCC/C=C\CCCCCCCC(=O)Oc1ccc(CC(=O)OCCC2CCN(CCSSCCN3CCC(CCOC(=O)Cc4ccc(OC(=O)CCCCCCC/C=C\CCCCCCCC)cc4)CC3)CC2)cc1 [SS-OP] | decreased at pH 6.5 and pH 7 | decreased at pH 6.5 and pH 7 | highest in vitro activity was observed at pH 6; also recorded: slightly decreasing at pH 6.5; also recorded: low activity was observed at pH 5, pH 5.5, and pH 7 | higher values in a low pH environment
